Measurements reported in patent publication US20040029865A1, “Bis-arylsulfones” (priority 2002, published 2004).

How the values were obtained:
Assay type in all cases: physicochemical
[1] = Dynamic moisture sorption gravimetry (DMSG); conditions: for Δ-Wt (%) DMSG: 0-90% RH: moisture sorption weight change; for moisture absorption (Δ-Wt(%) DMSG) relative to other salts: comparison with other salts
Description: Dynamic moisture sorption gravimetry (DMSG): DMSG isotherms were collected on the variable temperature controlled atmospheric microbalance, CAM. Approximately 10 mg samples were used in the balance, samples were run as received. The humidity was set at ambient conditions on the day analysis began. After the first scan with fast scan rate from ambient RH to 0% RH; the DMSG analysis followed with three more scans: 0% RH to 90% RH, 90% RH to 0% RH, 0% RH to 90% RH. The scan rate was 3% RH/step. The mass was measured every two minutes and an equilibrium window of 5 points within 0.001 mg. The RH was changed to the next value (+/−3% RH) when the mass of the sample was stable to within 1.0 μg. The Visual Basic program dmsgscn2.exe was used to control the data collection and export the information to an Excel spreadsheet.

[2] = Two-week solid-state stability at stressed conditions (high RH / high temperature), assessed by Powder-XRD; conditions: for Stability at high Temp (70° C.) / Stability at high RH (88%): two weeks, Powder-XRD; for Stability at high RH (88%): 88% RH; for physical stability at stressed conditions (high temperature and/or high humidity) relative to other salts: comparison with other salts
Description: X-ray Diffraction (XRD) Analysis: A Scintag X-2 theta/theta scanning diffractometer (Scintag Inc., Cupertino Calif.) was employed for the XRD data acquisition for this study. […] Major instrumental parameters are set as follows: 45 KV voltage, 40 mA current, divergent slit width of 2 mm, detector scatter slit width of 0.5 mm and receiving slit width of 0.3 mm. Each XRD pattern was scanned over the spectral range of 2-40° two-theta angle with a step scan algorithm with a step size of 0.03° two-theta angle/step. The raw XRD data, exported in ASCII format, is then converted to the binary format with Galactic's Grams software (Galactic Industries Corp., Salem N.H.) for data analysis, storage and output.

[3] = Conversion of crystal form II to form I upon stirring in aqueous or hot-ethanol
Text: See results in Table 2 below.

| Δ-Wt (%) DMSG: 0-90% RH [1] | Stability at high Temp (70° C.) [2] | Stability at high RH (88%) [2] | moisture absorption (Δ-Wt(%) DMSG) relative to other salts [1] | physical stability at stressed conditions (high temperature and/or high humidity) relative to other salts [2] | Molecule | other results |
| --- | --- | --- | --- | --- | --- | --- |
| 0.7% | Stable | Stable |  |  | CC(=O)Nc1cc(N2CCCNCC2)ccc1S(=O)(=O)c1cccc(F)c1.O=C(O)/C=C\C(=O)O [Example 4, N-{5-(1,4-diazepan-1-yl)-2-[(3-fluorophenyl)sulfonyl]phenyl}acetamide Maleate, Crystal Form I] | Stability at high Temp (70° C.) ([2]; listed as form I): excellent physical stability; Stability at high RH (88%) ([2]; listed as form I): excellent physical stability; thermodynamic preference between crystal forms [3]: thermodynamically favored relative to form II |
| 3.0% | Stable | Unstable** |  |  | CC(=O)Nc1cc(N2CCCNCC2)ccc1S(=O)(=O)c1cccc(F)c1.O=C(O)/C=C/C(=O)O [Example 9, N-{5-(1,4-diazepan-1-yl)-2-[(3-fluorophenyl)sulfonyl]phenyl}acetamide Hemi-fumarate] |  |
|  | Stable | Unstable** |  |  | CC(=O)Nc1cc(N2CCCNCC2)ccc1S(=O)(=O)c1cccc(F)c1 [Example 11, N-{5-(1,4-diazepan-1-yl)-2-[(3-fluorophenyl)sulfonyl]phenyl}acetamide Hemi-tartrate] |  |
|  |  |  | lower moisture absorption | better physical stability | CC(=O)Nc1cc(N2CCCNCC2)ccc1S(=O)(=O)c1cccc(F)c1.O=C(O)/C=C\C(=O)O [maleate, N-{5-(1,4-diazepan-1-yl)-2-[(3-fluorophenyl)sulfonyl]phenyl}acetamide maleate] |  |

Continued, molecule first:

| Molecule | Δ-Wt (%) DMSG: 0-90% RH [1] | Stability at high Temp (70° C.) [2] | Stability at high RH (88%) [2] | moisture absorption (Δ-Wt(%) DMSG) relative to other salts [1] | physical stability at stressed conditions (high temperature and/or high humidity) relative to other salts [2] | other results |
| --- | --- | --- | --- | --- | --- | --- |
| CC(=O)Nc1cc(N2CCCNCC2)ccc1S(=O)(=O)c1cccc(F)c1.CS(=O)(=O)O [Example 1, N-{5-(1,4-diazepan-1-yl)-2-[(3-fluorophenyl)sulfonyl]phenyl}acetamide Methanesulfonate] | Deliquesced | Stable | Deliquesced |  |  |  |
| CC(=O)Nc1cc(N2CCCNCC2)ccc1S(=O)(=O)c1cccc(F)c1.Cl [Example 2, N-{5-(1,4-diazepan-1-yl)-2-[(3-fluorophenyl)sulfonyl]phenyl}acetamide Hydrochloride] | 0.8% | Stable | Stable | lower moisture absorption | better physical stability |  |
| CC(=O)Nc1cc(N2CCCNCC2)ccc1S(=O)(=O)c1cccc(F)c1.O=C(O)C(F)(F)F [Example 3, N-{5-(1,4-diazepan-1-yl)-2-[(3-fluorophenyl)sulfonyl]phenyl}acetamide Trifluoroacetate] | 0.8% | Stable | Stable | lower moisture absorption | better physical stability |  |
| CC(=O)Nc1cc(N2CCCNCC2)ccc1S(=O)(=O)c1cccc(F)c1.O=C(O)/C=C\C(=O)O [Example 5 (Form II), N-{5-(1,4-diazepan-1-yl)-2-[(3-fluorophenyl)sulfonyl]phenyl}acetamide maleate] |  |  |  |  |  | Δ-Wt (%) DMSG: 0-90% RH ([1]; maleate): 0.3%; Stability at high Temp (70° C.) ([2]; listed as form II, maleate): excellent physical stability; Stability at high Temp (70° C.) ([2]; maleate): Stable; Stability at high RH (88%) ([2]; listed as form II, maleate): excellent physical stability; Stability at high RH (88%) ([2]; maleate): Stable |
| CC(=O)Nc1cc(N2CCCNCC2)ccc1S(=O)(=O)c1cccc(F)c1.O=C(O)CC(O)(CC(=O)O)C(=O)O [Example 6, N-{5-(1,4-diazepan-1-yl)-2-[(3-fluorophenyl)sulfonyl]phenyl}acetamide Hemi-citrate] | 2.5% | Stable | Unstable*** |  |  |  |
| CC(=O)Nc1cc(N2CCCNCC2)ccc1S(=O)(=O)c1cccc(F)c1.Cc1ccc(S(=O)(=O)O)cc1 [Example 8, N-{5-(1,4-diazepan-1-yl)-2-[(3-fluorophenyl)sulfonyl]phenyl}acetamide Tosylate] | 1.9% | Stable | Stable | lower moisture absorption | better physical stability |  |
| N-{5-(1,4-diazepan-1-yl)-2-[(3-fluorophenyl)sulfonyl]phenyl}acetamide Hemi-malate [Example 10] | 1.5% | Unstable** | Stable |  |  |  |
| N-{5-(1,4-diazepan-1-yl)-2-[(3-fluorophenyl)sulfonyl]phenyl}acetamide Hemi-succinate [Example 7] | 5.0% | Unstable** | Unstable** |  |  |  |
